Among the data in patent US9079930B2, “Substituted pyrimidines” (MERCK SHARP & DOHME CORP., priority 2011, dated 2015) are IC50 values, retold here.

Molecules are shown by their SMILES.

T1 sequence (Q9GZT9 whole entry): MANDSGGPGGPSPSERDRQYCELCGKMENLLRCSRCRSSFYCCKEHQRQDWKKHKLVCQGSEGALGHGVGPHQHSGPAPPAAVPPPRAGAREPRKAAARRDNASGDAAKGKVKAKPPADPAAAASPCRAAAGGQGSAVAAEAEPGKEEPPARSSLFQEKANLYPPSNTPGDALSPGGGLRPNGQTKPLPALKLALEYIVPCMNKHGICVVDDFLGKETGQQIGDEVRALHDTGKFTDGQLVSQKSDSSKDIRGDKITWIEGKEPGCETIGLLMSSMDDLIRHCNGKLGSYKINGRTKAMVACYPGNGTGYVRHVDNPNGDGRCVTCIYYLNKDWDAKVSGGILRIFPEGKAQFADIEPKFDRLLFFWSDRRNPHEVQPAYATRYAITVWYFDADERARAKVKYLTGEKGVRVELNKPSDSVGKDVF

The test addresses T1, FLAG-tagged full length PHD2 (Homo sapiens, UniProt Q9GZT9).
T1 construct: FLAG-tagged full length PHD2 expressed in and purified from baculovirus-infected Sf9 cells; FLAG; made in house; host or cells: baculovirus-infected Sf9 cells
Description: PHD2 inhibition assay (time resolved fluorescence, HIF-1α peptide hydroxylation, VHL complex detection). The following applies: 0.2 μM 2-oxoglutarate, 0.5 μM HIF-1α peptide. It is filed as biochemical. The procedure: To each well of a 96-well plate was added 1 μL of test compound in DMSO and 20 μl of assay buffer (50 mM Tris pH 7.4/0.01% Tween-20/0.1 mg/ml bovine serum albumin/10 μM ferrous sulfate/i mM sodium ascorbate/20 μg/ml catalase) containing 0.15 μg/ml FLAG-tagged full length PHD2 expressed in and purified from baculovirus-infected Sf9 cells. After a 30 min preincubation at room temperature, the enzymatic reactions were initiated by the addition of 4 μL of substrates (final concentrations of 0.2 μM 2-oxoglutarate and 0.5 μM HIF-1α peptide biotinyl-DLDLEMLAPYIPMDDDFQL (SEQ ID NO: 1)). After 2 hr at room temperature, the reactions were terminated and signals were developed by the addition of a 25 μL quench/detection mix to a final concentration of 1 mM ortho-phenanthroline, 0.1 mM EDTA, 0.5 nM anti-(His)6 LANCE reagent (Perkin-Elmer Life Sciences), 100 nM AF647-labeled streptavidin (Invitrogen), and 2 μg/ml (His)6-VHL complex (S. Tan (2001) Protein Expr. Purif. 21, 224-234). The ratio of time resolved fluorescence signals at 665 and 620 nm was determined, and percent inhibition was calculated relative to an uninhibited control sample run in parallel.
`COc1ccc(C(NC(=O)c2cnc(-n3cccn3)nc2O)c2ccc([PH](=O)O)cc2)cc1` (centres unmarked) [Compound 9-1, 4-((4-Hydroxy-2-(1H-pyrazol-1-yl)pyrimidine-5-carboxamido)(4-methoxyphenyl)methyl)phenylphosphinic acid] returned an IC50 of 0.5 to 20 nM.
Then `CCOP(=O)(OCC)c1ccc(C(C)C(=O)Nc2cnc(-c3ccccn3)nc2O)cc1` (centres unmarked) [Compound 7-1, Diethyl 4-(1-(4-hydroxy-2-(pyridin-2-yl)pyrimidin-5-ylamino)-1-oxopropan-2-yl)phenyl phosphonate], with 100 to 10000 nM; and `CP(=O)(O)c1ccc([C@@H](NC(=O)c2cnc(-n3cccn3)nc2O)C2CCCCC2)cc1` [Compound 27-1, 4-((S)-cyclohexyl(4-hydroxy-2-(1H-pyrazol-1-yl)pyrimidine-5-carboxamido)methyl)phenyl(methyl)phosphinic acid], with 0.5 to 20 nM; and `CP(=O)(O)c1ccc([C@@H](NC(=O)c2cnc(-n3cc(F)cn3)nc2O)c2ccc(F)cc2)cc1` [Compound 28-1, 4-((S)-(2-(4-fluoro-1H-pyrazol-1-yl)-4-hydroxypyrimidine-5-carboxamido)(4-fluorophenyl)methyl)phenyl(methyl)phosphinic acid], with 100 to 10000 nM.
Regarding `CP(=O)(O)c1ccc(C(NC(=O)c2cnc(-n3cccn3)nc2O)c2ccccc2)cc1` (centres unmarked) [Compound 8-4, 4-((4-Hydroxy-2-(1H-pyrazol-1-yl)pyrimidine-5-carboxamido)(phenyl)methyl)phenyl(methyl)phosphinic acid], the IC50 was 0.5 to 20 nM.
`O=C(NC(c1ccccc1)P(=O)(O)O)c1cnc(-c2cccnn2)nc1O` (centres unmarked) [Compound 30-1, (4-hydroxy-2-(pyridazin-3-yl)pyrimidine-5-carboxamido)(phenyl)methylphosphonic acid] returned an IC50 of 20 to 100 nM.
In turn, `CCOC(=O)C(C)NP(=O)(N[C@@H](C)C(=O)OCC)c1ccc(C(NC(=O)c2cnc(-c3ccccn3)nc2O)c2ccc(OC)cc2)cc1` (stereo in doubt) [Compound 1-1-3, (2S,2′S)-diethyl 2,2′-((4-((4-hydroxy-2-(pyridin-2-yl)pyrimidine-5-carboxamido)(4-methoxyphenyl)methyl)phenyl)phosphoryl)bis(azanediyl)dipropanoate] displayed a half-inhibitory concentration (IC50) of 20 to 100 nM.
Turning to `CCOC(=O)C(C)(C)NP(=O)(NC(C)(C)C(=O)OCC)c1ccc(C(NC(=O)c2cnc(-c3ccccn3)nc2O)c2ccc(OC)cc2)cc1` (centres unmarked) [Compound 1-1-4, diethyl 2,2′-((4-((4-hydroxy-2-(pyridin-2-yl)pyrimidine-5-carboxamido)(4-methoxyphenyl)methyl)phenyl)phosphoryl)bis(azanediyl)bis(2-methylpropanoate)], the IC50 lay in the range of 0.5 to 20 nM.
Then `CCOP(=O)(OCC)c1ccc(C(C)C(=O)Nc2cnc(-n3cccn3)nc2O)cc1` (centres unmarked) [Compound 11-1, Diethyl 4-(1-(4-hydroxy-2-(1H-pyrazol-1-yl)pyrimidin-5-ylamino)-1-oxopropan-2-yl)phenylphosphonate], with 100 to 10000 nM; and `C[C@H](NC(=O)c1cnc(-c2ccccn2)nc1O)c1ccc(P(=O)(O)O)cc1` [Compound 3-7, (S)-4-(1-(4-hydroxy-2-(pyridin-2-yl)pyrimidine-5-carboxamido)ethyl)phenylphosphonic acid], with 100 to 10000 nM.
`CCOP(=O)(O)c1ccc(C(NC(=O)c2cnc(-n3cccn3)nc2O)c2ccccc2)cc1` (centres unmarked) [Compound 8-2, Ethyl hydrogen 4-((4-hydroxy-2-(1H-pyrazol-1-yl)pyrimidine-5-carboxamido)(phenyl)methyl)phenylphosphonate] showed an IC50 of 0.5 to 20 nM.
Take `COc1ccc(C(NC(=O)c2cnc(-c3cccnn3)nc2O)P(=O)(O)O)cc1` (centres unmarked) [Compound 30-2, (4-Hydroxy-2-(pyridazin-3-yl)pyrimidine-5-carboxamido)(4-methoxyphenyl)methyl phosphonic acid]: the IC50 lay within 0.5 to 20 nM.
As to `CCOP(=O)(OCC)c1ccc(C(NC(=O)c2cnc(-n3cccn3)nc2O)c2ccccc2)cc1` (centres unmarked) [Compound 8-1, Diethyl 4-((4-hydroxy-2-(1H-pyrazol-1-yl)pyrimidine-5-carboxamido)(phenyl)methyl)phenylphosphonate], the 50% inhibitory concentration (IC50) was in the range of 0.5 to 20 nM.
Take `CCOP(=O)(OCC)c1ccc(C(C)(C)C(=O)Nc2cnc(-n3cccn3)nc2O)cc1` [Compound 12-1, Diethyl 4-(1-(4-hydroxy-2-(1H-pyrazol-1-yl)pyrimidin-5-ylamino)-2-methyl-1-oxopropan-2-yl)phenylphosphonate]: the IC50 lay within 100 to 10000 nM.
Turning to `COc1ccc(C(NC(=O)c2cnc(-c3ccccn3)nc2O)c2ccc([PH](=O)O)cc2)cc1` (centres unmarked) [Compound 1-1-6, 4-((4-hydroxy-2-(pyridin-2-yl)pyrimidine-5-carboxamido)(4-methoxyphenyl)methyl)phenylphosphinic acid], the IC50 lay within 0.5 to 20 nM.
`O=C(NC(c1ccccc1)c1ccc(P(=O)(O)O)cc1)c1cnc(-c2ccccn2)nc1O` (centres unmarked) [Compound 2-2, 4-((4-hydroxy-2-(pyridin-2-yl)pyrimidine-5-carboxamido)(phenyl)methyl)phenyl phosphonic acid] showed an IC50 of 0.5 to 20 nM.
To `CP(=O)(O)c1ccc([C@H](NC(=O)c2cnc(-n3cc(F)cn3)nc2O)c2ccc(F)cc2)cc1` [Compound 29-1, 4-((R)-(2-(4-fluoro-1H-pyrazol-1-yl)-4-hydroxypyrimidine-5-carboxamido)(4-fluorophenyl)methyl)phenyl(methyl)phosphinic acid] belongs 0.5 to 20 nM.
In turn, `CP(=O)(O)c1ccc([C@H](NC(=O)c2cnc(-n3cccn3)nc2O)c2ccc(F)cc2F)cc1` [Compound 21-1, 4-((S)-(2,4-difluorophenyl)(4-hydroxy-2-(1H-pyrazol-1-yl)pyrimidine-5-carboxamido)methyl)phenyl(methyl)phosphinic acid] showed an IC50 of 0.5 to 20 nM.
In turn, `CCOP(=O)(OCC)c1ccc(C(C(=O)Nc2cnc(-c3cccnn3)nc2O)c2ccccc2)cc1` (centres unmarked) [Compound 14-2, Diethyl 4-(2-(4-hydroxy-2-(pyridazin-3-yl)pyrimidin-5-ylamino)-2-oxo-1-phenylethyl)phenylphosphonate] came in with an IC50 of 100 to 10000 nM.
Compound `CC(C)OP(=O)(OC(C)C)C(NC(=O)c1cnc(-c2ccccn2)nc1O)c1ccccc1` (centres unmarked) [Compound 6-1, Diisopropyl (4-hydroxy-2-(pyridin-2-yl)pyrimidine-5-carboxamido)(phenyl)methyl phosphonate] showed an IC50 of 0.5 to 20 nM.
In the case of `CP(=O)(O)c1ccc([C@H](NC(=O)c2cnc(-n3cccn3)nc2O)C2CCCCC2)cc1` [Compound 26-1, 4-((R)-cyclohexyl(4-hydroxy-2-(1H-pyrazol-1-yl)pyrimidine-5-carboxamido)methyl)phenyl(methyl)phosphinic acid], the IC50 was in the range of 0.5 to 20 nM.
`CP(=O)(O)c1ccc(C(NC(=O)c2cnc(-n3cccn3)nc2O)c2ccc(F)cc2)cc1` (centres unmarked) [Compound 17-1, 4-((4-fluorophenyl)(4-hydroxy-2-(1H-pyrazol-1-yl)pyrimidine-5-carboxamido)methyl)phenyl(methyl)phosphinic acid] displayed an IC50 of 0.5 to 20 nM.
In turn, `CCOC(=O)CNP(=O)(NCC(=O)OCC)c1ccc(C(NC(=O)c2cnc(-c3cccnn3)nc2O)c2ccc(OC)cc2)cc1` (centres unmarked) [Compound 31-1, Diethyl 2,2′-((4-((4-hydroxy-2-(pyridazin-3-yl)pyrimidine-5-carboxamido)(4-methoxyphenyl)methyl)phenyl)phosphoryl)bis(azanediyl)diacetate] displayed an IC50 of 0.5 to 20 nM.
